Patent US6172097A, “Spiro imidazoline compounds” (Adir et Compagnie, priority 1998, dated 2001)

Experiments:
α2-adrenergic receptors = biological target: T1, α2-adrenergic receptors (Rattus norvegicus, UniProt P22909); test: Affinity for α2-adrenergic receptors in the rat, competition with [3H]-RX 821,002 on cerebral cortex membranes; format: binding; conditions: 0.4 nM [3H]-RX 821,002, 60 minutes at 22° C, pH 7.5
T1 construct: The membranes are prepared from the cerebral cortex of the rat; from tissue; host or cells: rat cerebral cortex membranes
T1 sequence (P22909 1-465): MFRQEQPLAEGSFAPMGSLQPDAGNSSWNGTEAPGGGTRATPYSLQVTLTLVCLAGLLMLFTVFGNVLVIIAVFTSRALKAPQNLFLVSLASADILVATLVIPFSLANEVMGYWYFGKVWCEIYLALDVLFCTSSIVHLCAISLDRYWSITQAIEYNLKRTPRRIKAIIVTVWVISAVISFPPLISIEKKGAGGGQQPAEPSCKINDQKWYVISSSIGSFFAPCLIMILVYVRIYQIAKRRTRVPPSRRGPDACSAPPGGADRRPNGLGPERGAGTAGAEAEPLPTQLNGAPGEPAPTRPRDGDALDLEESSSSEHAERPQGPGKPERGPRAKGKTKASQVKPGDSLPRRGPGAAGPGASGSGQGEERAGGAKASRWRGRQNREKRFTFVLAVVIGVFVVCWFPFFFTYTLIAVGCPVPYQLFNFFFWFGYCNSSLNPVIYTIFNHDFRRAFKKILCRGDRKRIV
Protocol: Determination of the Affinity For α2 -Adrenergic Receptors in the Rat
The affinity was determined by competition experiments with [^3 H]-RX 821,002. The membranes are prepared from the cerebral cortex of the rat and are incubated in triplicate with 0.4 nM [^3 H]-RX 821,002 and the product to be tested in a final volume of 1.0 ml, for 60 minutes at 22° C. The incubation buffer contains […] TRIS-HCl (pH 7.5), 1 mM EDTA and 100 μM GppNHp. The non-specific binding is determined using 10 μM phentolamine.
(§1) At the end of incubation, the incubation medium is filtered through WHATMAN GF/B filters impregnated with 0.1% of polyethyleneimine, and washed three times with 5 ml of cooled buffer. The radioactivity retained on the filters is determined by liquid scintillation counting. The binding isotherms are analysed by non-linear regression.

[1] = biological target: T2, noradrenaline reuptake sites (Rattus norvegicus, UniProt Q63380); test: Affinity for noradrenaline reuptake sites in the rat, competition with [3H]-nisoxetine on frontal cortex membranes; format: binding; conditions: 2 nM [3H]-nisoxetine, 4 hours at 4° C, pH 7.4
T2 construct: The membranes are prepared from the frontal cortex of the rat; from tissue; host or cells: rat frontal cortex membranes
Protocol: Determination of the Affinity For Noradrenaline Reuptake Sites in the Rat
The affinity was determined by competition experiments with [^3 H]-nisoxetine. The membranes are prepared from the frontal cortex of the rat and are incubated in triplicate with 2 nM [^3 H]-nisoxetine and the product to be tested in a final volume of 0.5 ml, for 4 hours at 4° C. The incubation buffer contains 50 mM TRIS-HCl (pH 7.4), 120 mM NaCl and 5 mM KCl. The non-specific binding is determined using 10 μM desipramine.
as §1

serotonin reuptake sites = biological target: T3, serotonin reuptake sites (Rattus norvegicus, UniProt P31652); test: Affinity for serotonin reuptake sites in the rat, competition with [3H]-paroxetine on frontal cortex membranes; format: binding; conditions: 0.25 nM [3H]-paroxetine, 2 hours at 25° C, pH 7.4
T3 construct: The membranes are prepared from the frontal cortex of the rat; from tissue; host or cells: rat frontal cortex membranes
Protocol: Determination of the Affinity For Serotonin Reuptake Sites in the Rat
The affinity was determined by competition experiments with [^3 H]-paroxetine. The membranes are prepared from the frontal cortex of the rat and are incubated in triplicate with 0.25 nM [^3 H]-paroxetine and the cold ligand in a final volume of 0.4 ml, for 2 hours at 25° C. The incubation buffer contains 50 mM TRIS-HCl (pH 7.4), 120 mM NaCl and 5 mM KCl. The non-specific binding is determined using 10 μM citalopram.
as §1

α2-adrenergic = conditions: described in U.S. Pat. No. 5,017,584; cited from earlier work
monoamine reuptake = conditions: described in U.S. Pat. No. 5,017,584; cited from earlier work

T3 sequence (P31652 whole entry): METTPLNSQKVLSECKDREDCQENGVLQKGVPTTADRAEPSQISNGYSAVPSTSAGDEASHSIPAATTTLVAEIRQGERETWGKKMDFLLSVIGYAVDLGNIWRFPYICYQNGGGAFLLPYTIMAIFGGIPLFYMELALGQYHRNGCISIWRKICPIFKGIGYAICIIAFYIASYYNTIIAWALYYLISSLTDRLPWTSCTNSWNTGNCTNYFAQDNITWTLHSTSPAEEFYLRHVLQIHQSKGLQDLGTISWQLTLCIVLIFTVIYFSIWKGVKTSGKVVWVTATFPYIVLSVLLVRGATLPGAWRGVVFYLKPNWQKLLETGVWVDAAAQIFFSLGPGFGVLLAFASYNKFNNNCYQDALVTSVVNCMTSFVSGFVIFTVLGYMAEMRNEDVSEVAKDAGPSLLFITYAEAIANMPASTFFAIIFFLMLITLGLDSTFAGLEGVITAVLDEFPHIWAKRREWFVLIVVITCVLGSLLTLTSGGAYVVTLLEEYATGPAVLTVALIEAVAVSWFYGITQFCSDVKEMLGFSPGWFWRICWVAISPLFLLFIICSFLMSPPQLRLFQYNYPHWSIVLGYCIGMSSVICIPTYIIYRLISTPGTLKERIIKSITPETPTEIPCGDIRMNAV
T2 sequence (Q63380 1-617): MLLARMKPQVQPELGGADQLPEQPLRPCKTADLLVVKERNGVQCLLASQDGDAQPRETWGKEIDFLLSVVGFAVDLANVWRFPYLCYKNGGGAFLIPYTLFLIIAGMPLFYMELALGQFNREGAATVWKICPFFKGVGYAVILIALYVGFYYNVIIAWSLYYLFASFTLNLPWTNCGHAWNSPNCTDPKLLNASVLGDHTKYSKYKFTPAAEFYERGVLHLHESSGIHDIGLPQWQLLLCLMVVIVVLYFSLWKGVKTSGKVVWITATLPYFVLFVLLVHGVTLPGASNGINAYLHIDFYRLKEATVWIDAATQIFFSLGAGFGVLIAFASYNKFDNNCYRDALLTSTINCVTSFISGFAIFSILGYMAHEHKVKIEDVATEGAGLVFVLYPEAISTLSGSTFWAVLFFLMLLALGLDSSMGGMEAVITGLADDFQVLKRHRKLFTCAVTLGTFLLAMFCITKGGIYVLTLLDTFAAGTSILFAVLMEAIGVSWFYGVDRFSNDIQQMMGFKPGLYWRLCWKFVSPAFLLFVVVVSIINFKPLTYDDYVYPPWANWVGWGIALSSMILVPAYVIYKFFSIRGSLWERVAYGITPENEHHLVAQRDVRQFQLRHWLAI

Row | SMILES | Ki (α2-adrenergic receptors) [nM] | Ki [1] [nM] | Ki (serotonin reuptake sites) [nM] | α2-adrenergic antagonist activity (in words) (α2-adrenergic) | monoamine reuptake-blocking activity (in words) (monoamine reuptake)
1 | C1=NC[C@@]2(CC[C@@H]3Cc4ccccc4C[C@H]3C2)N1 (relative stereo) [Example 1, Spiro[(1,3-diazacyclopent-1-ene)-5: 2'(S)-(trans-1',2',3',4',4'a(R),9',9'a(S),10'-octahydroanthracene)]fumarate and spiro [(1,3-diazacyclopent-1-ene)-5: 2'(R)-(trans-1',2',3',4',4'a(S),9',9'a(R),10'-octahydroanthracene)]fumarate] | 10 | 200 | 15.8 |  | 
2 | C1=C(CC2=NCCN2)CCc2ccccc21 [napamezole] |  |  |  | α2-adrenergic antagonist activity | monoamine reuptake-blocking activity
